{
  "source": "patent US20150320709A1",
  "about": "“METHODS AND COMPOSITIONS FOR FACILITATING WEIGHT LOSS BY ADMINISTRATION OF THYROID HORMONES” (priority 2011, published 2015)",
  "key": {"[1]": {"test_system": "thyroid hormone receptors", "details": "cited from earlier work"}, "[2]": {"assay": "Circulating thyroid hormone labs (FT3, FT4, rT3, TSH) in weight loss program patients on thyroid hormone treatment", "type": "in vivo, human", "source_text": "FIG. 1 depicts hormonal responses to a hypocaloric state with subsequent treatment. Note: Time frames and shapes of response curves are approximated. Levels of all four hormones are normal before the diet (Time A). At time between time points B and D, TSH is dropping slightly to signal the thyroid gland to make less thyroid hormone. This drop is the mechanism to decrease metabolism in the hypocaloric state. At point C, free T3 begins to drop as rT3 increases. Also at time point C, different observations have been reported for changes in FT4: in our experience, FT4 also drops as indicated on the graph. In the literature, some report no change, whereas others report an increase in FT4. By the time of the blood sampling (time E), in our experience, patients whose FT3 and FT4 have dropped to the low end of normal (with possible above normal rT3 levels) are those experiencing symptoms of low thyroid. They may have any of the following symptoms: feeling cold, cold hands and feet, elevated diastolic blood pressure secondary to vasoconstriction, fatigue, depression, constipation, hair loss, dry skin, insomnia, as well as others. They have often hit a plateau of weight loss even though they have continued to maintain their hypocaloric diet and exercise program. At point F, we begin treatment with thyroid hormone (for example, T4 with T3, T3 alone, T3 with T2 and T4, or T2 alone. Between points F and G, FT3 and rT3 (and FT4 if T4 was administered) are returning to more normal levels, while TSH plummets, often to undetectable levels. At time point H, symptoms of low thyroid are resolved, the patient has no symptoms of hyperthyroidism, and if rT3 had risen and was treated appropriately, rT3 decreased.\nThe first patient example is a person, 5′2″, weight 268 lbs, body mass index (BMI) 49 (nl 19-24; overweight 25-29; obesity≧30). Baseline blood pressure was 110/74, blood sugar (BS) was 153 mg/dL 10 days after their first visit. Their medical problems at baseline included obesity, type 2 diabetes mellitus (DM2), high blood pressure (HTN), fatigue, depression, and asthma. Their medications included glipizide 10 mg daily, amitriptyline 50 mg daily, metoprolol 50 mg daily, furosemide 40 mg daily, potassium chloride, lisinopril 10 mg daily, Advair Discus 500/50 twice daily (bid), and montelukast 10 mg daily. They were started on our comprehensive program. Five months after starting their weight loss treatment, they developed symptoms of hypothyroidism with constipation and fatigue. They had lost 28 lbs by this time and was having difficulty losing more weight even though they were eating less than they were before their weight loss treatment began. At the start of treatment, their FT4 was 0.9 ng/dL (nl 0.7-1.48). At the time of their low thyroid symptoms, their FT3 was 2.9 pg/mL (nl 1.71-3.71) and their FT4 was 0.91 ng/dL (nl 0.7-1.48). They were then treated with thyroid hormone (desiccated thyroid with a ratio of T4:T3 of about 4:1) at 60 mg daily for 6 days to acclimate, then increased to 120 mg daily. […] After two years on their weight loss treatment, their weight was 231 lbs. […] We tested for rT3 at this point. Their labs on the 150 mg dose of desiccated thyroid were: rT3 394 pg/mL (nl 90-350), FT3 3.94 pg/mL (nl 1.71-3.71), and FT4 1.24 ng/dL (nl 0.7-1.48). The task of bringing down their rT3 was then addressed. Over a period of a few months, their desiccated thyroid hormone was discontinued and instead the patient was given gradually increasing doses of T3 only, starting at 20 mcg daily and gradually increasing the T3 to 60 mcg bid. Five months after starting on T3 with increasing doses, their weight had dropped to 209 lbs. Their BP was 118/66 mmHg with pulse of 74 on lisinopril 10 mg daily, metoprolol 50 mg bid, and furosemide 40 mg daily. Instead of glipizide, they were taking metformin 500 mg bid. […] Their most recent labs on 60 mcg bid of T3 were FT3 3.8 pg/mL (nl 1.71-3.71), FT4 0.64 ng/dL (nl 0.7-1.48) and rT3 137 pg/mL (nl 90-350). Four months prior to this visit their BS was 125 mg/dl. […]"}, "[3]": {"assay": "Low thyroid symptoms / clinical status of weight loss program patients on thyroid hormone treatment", "type": "in vivo, human", "details": "Patient Example 2; 75 mcg daily, within a few weeks of switch from desiccated thyroid", "description": "The first patient example is a person, 5′2″, weight 268 lbs, body mass index (BMI) 49 (nl 19-24; overweight 25-29; obesity≧30). Baseline blood pressure was 110/74, blood sugar (BS) was 153 mg/dL 10 days after their first visit. Their medical problems at baseline included obesity, type 2 diabetes mellitus (DM2), high blood pressure (HTN), fatigue, depression, and asthma. Their medications included glipizide 10 mg daily, amitriptyline 50 mg daily, metoprolol 50 mg daily, furosemide 40 mg daily, potassium chloride, lisinopril 10 mg daily, Advair Discus 500/50 twice daily (bid), and montelukast 10 mg daily. They were started on our comprehensive program. Five months after starting their weight loss treatment, they developed symptoms of hypothyroidism with constipation and fatigue. They had lost 28 lbs by this time and was having difficulty losing more weight even though they were eating less than they were before their weight loss treatment began. At the start of treatment, their FT4 was 0.9 ng/dL (nl 0.7-1.48). At the time of their low thyroid symptoms, their FT3 was 2.9 pg/mL (nl 1.71-3.71) and their FT4 was 0.91 ng/dL (nl 0.7-1.48). They were then treated with thyroid hormone (desiccated thyroid with a ratio of T4:T3 of about 4:1) at 60 mg daily for 6 days to acclimate, then increased to 120 mg daily. […] After two years on their weight loss treatment, their weight was 231 lbs. […] We tested for rT3 at this point. Their labs on the 150 mg dose of desiccated thyroid were: rT3 394 pg/mL (nl 90-350), FT3 3.94 pg/mL (nl 1.71-3.71), and FT4 1.24 ng/dL (nl 0.7-1.48). The task of bringing down their rT3 was then addressed. Over a period of a few months, their desiccated thyroid hormone was discontinued and instead the patient was given gradually increasing doses of T3 only, starting at 20 mcg daily and gradually increasing the T3 to 60 mcg bid. Five months after starting on T3 with increasing doses, their weight had dropped to 209 lbs. Their BP was 118/66 mmHg with pulse of 74 on lisinopril 10 mg daily, metoprolol 50 mg bid, and furosemide 40 mg daily. Instead of glipizide, they were taking metformin 500 mg bid. […] Their most recent labs on 60 mcg bid of T3 were FT3 3.8 pg/mL (nl 1.71-3.71), FT4 0.64 ng/dL (nl 0.7-1.48) and rT3 137 pg/mL (nl 90-350). Four months prior to this visit their BS was 125 mg/dl.\nThe second patient example is a person, 5′2″, weight 150 lbs, BMI 28 (nl 18.5-24.9; overweight 25-29.9; obesity≧30), with HTN. Their blood pressure was slightly elevated at 148/85 (on lisinopril 5 mg daily). Their medical problems at baseline included history of Hashimoto's thyroiditis, borderline high TSH, elevated lipids, and HTN. Their medications were lisinopril 5 mg daily, estradiol 2 mg daily, and rofecoxib 25 mg daily for osteoarthritis of their large joints. […]"}, "[4]": {"assay": "Existing thyroid therapy in subjects undergoing a weight loss regimen (general finding)", "type": "in vivo", "details": "T4 alone or T3:T4 at ratios of less than 1:2", "source_text": "Such T4 based therapy often serves to increase levels of rT3 and decreases levels of circulating T3, thereby undermining attempts to counter hypothyroidism and effect continued weight loss."}, "[5]": {"assay": "Low thyroid symptoms / clinical status of weight loss program patients on thyroid hormone treatment", "type": "in vivo, human"}},
  "data": [
    {"molecule": "N[C@@H](Cc1ccc(Oc2cc(I)c(O)c(I)c2)c(I)c1)C(=O)O", "note": "[rT3, reverse triiodothyronine]", "values": [
      {"measurement": "action on thyroid hormone receptors", "setting": "[1]", "result": "does not stimulate thyroid hormone receptors but instead binds to these receptors"}
    ]},
    {"molecule": "N[C@@H](Cc1cc(I)c(Oc2cc(I)c(O)c(I)c2)c(I)c1)C(=O)O", "note": "[T4, (2S)-2-amino-3-[4-(4-hydroxy-3,5-diiododophenoxy)-3,5-diiodophenyl]propanoic acid]", "values": [
      {"measurement": "TSH", "setting": "[2]; Patient Example 2, 75 mcg daily", "result": 0.91, "unit": "uIU/mL"},
      {"measurement": "FT4", "setting": "[2]; Patient Example 2, 75 mcg daily, nl 0.93-1.70", "result": 1.07, "unit": "ng/dL"},
      {"measurement": "FT3", "setting": "[2]; Patient Example 2, 75 mcg daily, nl 2.2-4.0", "result": 2.3, "unit": "pg/mL"},
      {"measurement": "low thyroid symptoms", "setting": "[3]", "result": "began to feel tired, cold, and depressed and developed constipation and hair loss"},
      {"measurement": "correction of thyroid abnormalities and/or hypothyroidism so as to permit continuing weight loss", "setting": "[4]", "result": "fails to correct thyroid abnormalities and/or hypothyroidism"}
    ]},
    {"molecule": "N[C@@H](Cc1cc(I)c(Oc2ccc(O)cc2)c(I)c1)C(=O)O", "note": "[T2, 3,5-diiodo-1-thyronine]", "values": [
      {"measurement": "FT4", "setting": "[2]; Patient Example 3, T2 2 mcg SR q AM added, T3 25 mcg b.i.d., normal range 0.93-1.7", "result": 0.23, "unit": "ng/dL"},
      {"measurement": "FT3", "setting": "[2]; Patient Example 3, T2 2 mcg SR q AM added, T3 25 mcg b.i.d., normal range 2.2-4.0", "result": 3.2, "unit": "pg/mL"},
      {"measurement": "rT3", "setting": "[2]; Patient Example 3, T2 2 mcg SR q AM added, T3 25 mcg b.i.d., normal range 90-350", "result": 69, "unit": "pg/mL"},
      {"measurement": "FT3", "setting": "[2]; Patient Example 4, T2 2 mcg twice daily added, T3 50 mcg twice daily, normal range 2.2-4.0", "result": 2.7, "unit": "pg/mL"},
      {"measurement": "reported symptoms", "setting": "[5]; Patient Example 3, T2 2 mcg SR q AM added, T3 25 mcg b.i.d., 10 days after start of T2", "result": "surfaces of their body were now warm and not numb, and that their skin and hair had improved"},
      {"measurement": "energy levels", "setting": "[5]; Patient Example 3, T2 2 mcg SR q AM added, T3 decreased to 25 mcg b.i.d., two days later", "result": "energy levels were normalized"},
      {"measurement": "low thyroid symptoms", "setting": "[5]; Patient Example 3, over six weeks after starting the T2 regimen", "result": "not suffering from any symptoms of low thyroid"},
      {"measurement": "reported symptoms", "setting": "[5]; Patient Example 4, T2 2 mcg q AM and 8-10 hours later added, T3 reduced to 50 mcg twice daily, nearly two months", "result": "no complaints of fatigue and reported that only a slight coldness persisted"}
    ]}
  ]
}
